Data set [1] in a line: in vitro. The arrangement: metabolic stability in liver microsomes with NADPH, UHPLC-MS/MS quantitation of parent compound. As to conditions: for remaining at 1 h, 1 µM: pH 7.4, liver microsomes, read-out: % parent compound remaining at 1 h; for half-life at 1 µM / microsomal CLint at 1 µM: pH 7.4, liver microsomes; for microsomal CLint at 1 µM: read-out: Cl int (µL/min/mg protein). As for the experimental part: (§1) Incubation of the test compounds in mouse or human liver microsomes (Xenotech, Lenexa, KS, USA) was done with a previously described method[55] with modifications. We tested the metabolic stability of PRE-084 and PGB, the latter of which was used as a control because of its poor hepatic metabolism. Briefly, the drugs were incubated in 96-well plates at a concentration of 1 μM and at 37 °C during 1 h under standard incubation conditions: sodium-potassium phosphate buffer (50 mM, pH 7.4), MgCl2 (3 mM), the NADPH-regenerating system and cytochrome P450 content (0.3 nmol/mL). Aliquots of the reaction mixture were obtained at 0, 10, 20, 40 and 60 min with an equal volume of cold acetonitrile. The assay was done in a robotic [compound left out] handling system (Freedom Evo Tecan, Männedorf, Switzerland). Upon centrifugation of the resulting mixture, supernatants were analyzed with a generic ultra-high performance [compound left out] chromatography–tandem mass spectrometry method. For the in vitro metabolic stability in liver microsomes, Ln-linear plots of the percentage of compound remaining based on chromatographic peak area versus time were generated, and the slope was calculated by linear fitting of the curve. The in vitro metabolic t1/2 was estimated with the equation 0.693/k where k is the biotransformation rate constant and corresponds to the slope of the ln-linear curve. Liver microsome Cl int was calculated with the equation [drawing 1]

Data set [2] is described as follows: in vitro. The arrangement: metabolic stability in mouse liver microsomes with NADPH-regenerating system, parent compound by UHPLC-MS/MS. As to conditions: mouse liver microsomes. As for the experimental part: as §1
Data set [3] in a line: in vitro. The arrangement: metabolic stability in human liver microsomes with NADPH-regenerating system, parent compound by UHPLC-MS/MS. The conditions noted are these: human liver microsomes. As for the experimental part:
as §1
For orientation: Liver microsomes are vesicles of endoplasmic reticulum, rich in cytochrome P450 enzymes.

Another data set addresses T1, sigma-1 receptor (Mus musculus, UniProt O55242).
T1 construct: gene Sigmar1; native receptor in wild-type mouse brain crude synaptosomal membranes (P2 fraction)
Nature of the data set: [3H](+)-pentazocine competition radioligand binding in mouse brain membranes.

Where a name gives a salt, the structure may show the parent alone. Read-outs that look alike come from different tables or passages of the source.

T1 sequence (O55242 whole entry): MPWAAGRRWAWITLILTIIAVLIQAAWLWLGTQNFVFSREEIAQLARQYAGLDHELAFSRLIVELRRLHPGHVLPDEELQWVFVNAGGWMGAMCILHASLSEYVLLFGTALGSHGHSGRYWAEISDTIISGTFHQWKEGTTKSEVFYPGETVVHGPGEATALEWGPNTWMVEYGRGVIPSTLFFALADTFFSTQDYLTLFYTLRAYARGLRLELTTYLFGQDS

For `CC(C)C[C@H](CN)CC(=O)O` [Pregabalin], in “in vitro [1]” (human liver microsomes), the fraction remaining at 1 h, 1 µM worked out at 95 ± 2.96%; the half-life at 1 µM came to 17.9 ± 10.8 h; the microsomal CLint at 1 µM is 2.3 ± 0.94 µL/min/mg. Further, in the data set “in vitro [1]” (mouse liver microsomes), the share remaining at 1 h, 1 µM was 97 ± 2.67%; the half-life at 1 µM worked out at 10 ± 3.03 h; the microsomal CLint at 1 µM was 4.5 ± 1.2 µL/min/mg.

In the case of `O=C(OCCN1CCOCC1)C1(c2ccccc2)CCCCC1` [PRE, 2-(4-morpholinethyl)1-phenylcyclohexanecarboxylate) hydrochloride], the amount remaining at 1 h, 1 µM in the data set “in vitro [2]” (pH 7.4, liver microsomes, read-out: % parent compound remaining at 1 h (mouse)) was 0%; in the data set “in vitro [3]” (pH 7.4, liver microsomes, read-out: % parent compound remaining at 1 h (human)), 4 ± 0.58%. For the same compound, the microsomal CLint at 1 µM in “in vitro [2]” (pH 7.4, liver microsomes, read-out: Cl int (mouse)) was determined as 949 ± 203 µL/min/mg; in “in vitro [3]” (pH 7.4, liver microsomes, read-out: Cl int (human)), 103 ± 5 µL/min/mg. The half-life at 1 µM in “in vitro [2]” (pH 7.4, liver microsomes, read-out: t1/2 (mouse)) is 3 ± 0.67 min; in “in vitro [3]” (pH 7.4, liver microsomes, read-out: t1/2 (human)), 0.217 ± 0.00967 h. The compound further gave an IC50 on sigma-1 receptor of 188 ± 18.8 nM.

As usually defined, the amount remaining is the share of the starting amount still present when the sample was taken. What is called IC50 is the concentration that inhibits the measured activity by half. Read a high IC50 as a need for much substance.
